From patent US20230398227A1, “MEDICINE FOR TREATING CANCER” (CHIOME BIOSCIENCE INC., priority 2020, published 2023)

Key:
Hep3B xenograft tumor [1] = test: Immunostaining for Ki-67 and cleaved caspase-3 in Hep3B xenograft tumor at 48 hours after administration; type: in vivo, NOD-SCID mice; conditions: HuBA-1-3D 1 mg/kg i.p., H3B-6527 50 mg/kg, FGF-401 10 mg/kg, BLU-554 30 mg/kg oral, alone or combined
Experimental: (§1) Hep3B cells (1×10^6 cells) were transplanted subcutaneously into the right flank of NOD-SCID mice. At the stage where the tumor volume reached 250 to 350 mm 3, these mice were divided into the following 8 groups of 6 mice each, and administered from the same day: • the Vehicle group; • the group receiving HuBA-1-3D (1 mg/kg); • the group receiving H3B-6527 (50 mg/kg); • the group receiving FGF-401 (10 mg/kg); • the group receiving BLU-554 (30 mg/kg); • the group receiving HuBA-1-3D (1 mg/kg)+H3B-6527 (50 mg/kg); • the group receiving HuBA-1-3D (1 mg/kg)+FGF-401 (10 mg/kg); and • the group receiving HuBA-1-3D (1 mg/kg)+BLU-554 (30 mg/kg).
(§2) HuBA-1-3D was intraperitoneally administered, while FGFR4 inhibitors (H3B-6527, FGF-401 and BLU-554) were orally administered. At 48 hours after administration, three mice in each group were sacrificed to excise their tumors, and the tumors were fixed in 10% formalin and then embedded in paraffin to prepare sections for immunostaining. In addition, tissue extracts were prepared for Western blotting.
Cancer cell proliferation and apoptosis in the Hep3B tumor at 48 hours after administration were analyzed by immunostaining in which Ki-67 or cleaved caspase-3 expression was used as an indicator.

Hep3B xenograft tumor [2] = test: Western blotting of apoptosis markers and cyclin B1 in Hep3B xenograft tumor at 48 hours after administration; type: in vivo, NOD-SCID mice; conditions: three animals per group, HuBA-1-3D 1 mg/kg, H3B-6527 50 mg/kg, FGF-401 10 mg/kg, BLU-554 30 mg/kg
Experimental: as §1, §2
Subsequently, apoptosis (cleaved caspase-3 and Cleaved PARP) and cancer cell proliferation (cyclin B1) in the Hep3B xenograft tumor upon administration of each agent were analyzed by Western blotting.

[3] = system: human hepatic cancer cell line Hep3B xenograft; test: Antitumor effect in Hep3B xenograft therapeutic model, HuBA-1-3D and FGF-401; type: in vivo, NOD-SCID mice; conditions: alone or combined
Text: (§3) Then, in an attempt to further verify the enhancing effect on antitumor activity upon combined administration of HuBA-1-3D antibody and FGFR4 inhibitor (FGF-401), the antitumor effect obtained upon combined administration of FGF-401 and HuBA-1-3D was studied in a xenograft therapeutic model based on the human hepatic cancer cell line Hep3B, wherein FGF-401 inhibits FGFR4-specific tyrosine kinase activity by specifically binding to cysteine at amino acid position 552 of the ATP-binding region present in the region located at amino acid positions 545 to 562 of FGFR4 (Mol. Cancer Ther. 2019 December; 18(12):2194-2206), as in the case of H3B-6527.
Hep3B cells (1×10^6 cells) were transplanted subcutaneously into the right flank of NOD-SCID mice (Day 0). At the stage where the mean tumor volume exceeded 100 mm^3 (Day 14), the mice were divided into the following 6 groups, and administered from the same day: • the Vehicle group (N=8); • the group receiving FGF-401 (10 mg/kg body weight, twice a day) (N=8); • the group receiving HuBA-1-3D (0.3 mg/kg body weight) (N=8); • the group receiving HuBA-1-3D (1 mg/kg body weight) (N=8); • the group receiving FGF-401 (10 mg/kg body weight) and HuBA-1-3D (0.3 mg/kg body weight) (N=8); and • the group receiving FGF-401 (10 mg/kg body weight) and HuBA-1-3D (1 mg/kg body weight) (N=8).
HuBA-1-3D was intraperitoneally administered once a day 4 times in total on Days 14, 17, 21 and 24, while FGF-401 was orally administered twice a day 10 times in total on Days 14, 15, 16, 17, 18, 21, 22, 23, 24 and 25. The combined administration of HuBA-1-3D and FGF-401 was performed 4 times in total on Days 14, 17, 21 and 24. In each group, a mouse whose tumor volume exceeded 1,500 mm^3 was sacrificed at that point of time.

FGFR4 = FGFR4 (Homo sapiens, UniProt P22455); conditions: reported in Mol Cancer Ther (2014); 13(11); 2547-58; read-out: tyrosine kinase inhibitory activity (IC50) against FGFR4; cited from earlier work
FGFR4, sequence (P22455 22-802): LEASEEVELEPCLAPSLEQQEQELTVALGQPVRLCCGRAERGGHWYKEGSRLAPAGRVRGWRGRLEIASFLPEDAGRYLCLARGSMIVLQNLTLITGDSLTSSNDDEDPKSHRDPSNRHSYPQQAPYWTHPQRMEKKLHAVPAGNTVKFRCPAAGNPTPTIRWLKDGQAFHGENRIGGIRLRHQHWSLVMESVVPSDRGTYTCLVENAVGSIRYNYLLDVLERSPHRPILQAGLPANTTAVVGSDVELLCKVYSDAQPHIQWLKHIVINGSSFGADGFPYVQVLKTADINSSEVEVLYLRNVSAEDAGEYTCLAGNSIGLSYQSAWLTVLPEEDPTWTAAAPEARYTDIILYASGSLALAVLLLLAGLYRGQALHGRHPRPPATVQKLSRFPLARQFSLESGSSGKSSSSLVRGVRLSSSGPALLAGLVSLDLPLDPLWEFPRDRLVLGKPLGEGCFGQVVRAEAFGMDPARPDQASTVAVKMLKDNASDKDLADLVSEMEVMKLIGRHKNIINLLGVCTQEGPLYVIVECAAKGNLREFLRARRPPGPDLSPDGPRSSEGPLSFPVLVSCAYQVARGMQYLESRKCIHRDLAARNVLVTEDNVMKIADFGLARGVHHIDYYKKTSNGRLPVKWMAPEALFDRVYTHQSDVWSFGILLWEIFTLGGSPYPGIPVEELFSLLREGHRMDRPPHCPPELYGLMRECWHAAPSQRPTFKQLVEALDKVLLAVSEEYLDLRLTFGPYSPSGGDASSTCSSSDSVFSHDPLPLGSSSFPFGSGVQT

[4] = system: human hepatic cancer cell line Hep3B xenograft; test: Antitumor effect in Hep3B xenograft therapeutic model, HuBA-1-3D and CH518324/Debio1347; type: in vivo, mice; conditions: alone or combined
Text: In each group, a mouse whose tumor volume exceeded 1,500 mm^3 was sacrificed at that point of time.

[5] = system: human hepatic cancer cell line Hep3B xenograft; test: Antitumor effect in Hep3B xenograft therapeutic model, HuBA-1-3D and H3B-6527; type: in vivo, NOD-scid mice; conditions: alone or combined
Text: The antitumor effect obtained upon combined administration of HuBA-1-3D antibody and H3B-6527 serving as a small molecule inhibitor against FGFR4 (Cancer Res. 2017 Dec. 15; 77(24):6999-7013) was studied in a xenograft therapeutic model based on the human hepatic cancer cell line Hep3B. • (1) Hep3B cells were transplanted subcutaneously into the right flank of NOD-scid mice (Day 0). At the stage where the mean tumor volume reached around 100 mm^3 (Day 14), the mice were divided into the following 6 groups, and administered from the same day for 11 days with HuBA-1-3D at a frequency of twice a week (Days 14, 18, 22 and 25) and/or with H3B-6527 twice a day (BID) and five times a week in a cycle of administration for 5 days and withdrawal for 2 days (Days 14, 15, 16, 17, 18, 21, 22, 23, 24 and 25): • the Vehicle group (N=8) • the group receiving H3B-6527 (50 mg/kg body weight, twice a day) (N=8); • the group receiving HuBA-1-3D (0.3 mg/kg body weight) (N=8); • the group receiving HuBA-1-3D (1 mg/kg body weight) (N=8); • the group receiving H3B-6527 (50 mg/kg body weight) and HuBA-1-3D (0.3 • mg/kg body weight) (N=8); and • the group receiving H3B-6527 (50 mg/kg body weight) and HuBA-1-3D (1 mg/kg body weight) (N=8).
The tumor volume was measured at a frequency of twice a week, and an animal whose tumor volume reached 1,500 mm^3 was excluded from observation.

[6] = system: human hepatic cancer cell line Hep3B xenograft; test: Antitumor effect in Hep3B xenograft therapeutic model, HuBA-1-3D and BLU-554; type: in vivo, mouse; conditions: alone or combined
Text: as §3, with “In” for “Then, in”, “as in the case of the above examples,” for “(FGF-401),”, “BLU-554” for “FGF-401”, “(Cancer Discov.” for “(Mol. Cancer Ther.”, “9(12):1696-1707),” for “18(12):2194-2206),”, “H3B-6527 and FGF-401.” for “H3B-6527.”
Hep3B cells (1×10^6 cells) were transplanted (Day 0), and at the point of time when the mean tumor volume exceeded 100 mm^3 (Day 14), animals were divided into the following 4 groups and administered from the same day: • the Vehicle group (N=8); • the group receiving BLU-554 (30 mg/kg body weight, twice a day) (N=8); • the group receiving HuBA-1-3D (1 mg/kg body weight) (N=8); and • the group receiving BLU-554 (30 mg/kg body weight) and HuBA-1-3D (1 mg/kg body weight) (N=8).
HuBA-1-3D was intraperitoneally administered once a day 4 times in total on Days 14, 17, 21 and 24, while BLU-554 was orally administered twice a day 10 times in total on Days 14, 15, 16, 17, 18, 21, 22, 23, 24 and 25. […]

| SMILES | apoptotic cells stained with cleaved caspase-3 in the tumor (Hep3B xenograft tumor [1]) | proportion of cancer cells stained with Ki-67 compared to the Vehicle group (Hep3B xenograft tumor [1]) | expression level of cyclin B1 (cell proliferation marker) compared to the Vehicle group (Hep3B xenograft tumor [2]) | expression of apoptosis markers (Cleaved caspase-3 and cleaved PARP) (Hep3B xenograft tumor [2]) | tumor volume ([3]; Day 28 (3 days after final administration), FGF-401 10 mg/kg twice a day oral, HuBA-1-3D 1 mg/kg i.p.) [mm^3] | T/C ([3]; Day 28, vs Vehicle, FGF-401 10 mg/kg, HuBA-1-3D 1 mg/kg) [%] | antitumor effect compared to tumor volume in the Vehicle group ([3]; Day 35 (10 days after final administration), FGF-401 10 mg/kg, HuBA-1-3D 1 mg/kg, Dunnett) | IC50 (FGFR4) [nM] | mean tumor volume ([4]; Day 31 (6 days after final administration), CH518324/Debio1347 50 mg/kg once a day oral, HuBA-1-3D 1 mg/kg i.p.) [mm^3] | T/C ([4]; Day 31, vs Vehicle, CH518324/Debio1347 50 mg/kg, HuBA-1-3D 1 mg/kg) [%] | tumor volume ([5]; Day 32 (7 days after completion of administration), H3B-6527 50 mg/kg twice a day, HuBA-1-3D 1 mg/kg twice a week) [mm^3] | T/C ([5]; Day 32, vs Vehicle, H3B-6527 50 mg/kg twice a day, HuBA-1-3D 1 mg/kg) [%] | tumor volume ([5]; Day 38 (13 days after final administration), H3B-6527 50 mg/kg, HuBA-1-3D 1 mg/kg) [mm^3] | tumor presence / tumor disappearance at excision (animals) ([5]; Day 38, H3B-6527 50 mg/kg, HuBA-1-3D 1 mg/kg) | tumor weight ([5]; tumors excised on Day 38, H3B-6527 50 mg/kg, HuBA-1-3D 1 mg/kg) [g] | mean tumor volume ([6]; Day 38 (13 days after final administration), BLU-554 30 mg/kg twice a day oral, HuBA-1-3D 1 mg/kg i.p.) [mm^3] | T/C ([6]; Day 38, vs Vehicle, BLU-554 30 mg/kg, HuBA-1-3D 1 mg/kg) [%] |
| --- | --- | --- | --- | --- | --- | --- | --- | --- | --- | --- | --- | --- | --- | --- | --- | --- | --- |
| COCCNc1cc(NC(=O)N2CCCc3cc(CN4CCN(C)CC4=O)c(C=O)nc32)ncc1C#N [FGF-401, N-[5-cyano-4-[(2-methoxyethyl)amino]-2-pyridinyl]-7-formyl-3,4-dihydro-6-[(4-methyl-2-oxo-1-piperazinyl)methyl]-1,8-naphthyridine-1(2H)-carboxamide] | not detected | no change | no difference | induced in none of the three animals | 388.9±94.8 | 56.8 | significant antitumor effect | – | – | – | – | – | – | – | – | – | – |
| Cc1nc2ccc(-n3ncc(C(=O)c4cc5ccccc5[nH]4)c3N)cc2[nH]1 [CH518324/Debio1347] | – | – | – | – | – | – | – | 290 | 673.8±271.8 | 56.2 | – | – | – | – | – | – | – |
| C=CC(=O)Nc1cc(N2CCN(CC)CC2)ccc1Nc1cc(N(C)C(=O)Nc2c(Cl)c(OC)cc(OC)c2Cl)ncn1 [H3B-6527, N-{2-[(6-{[(2,6-dichloro-3,5-dimethoxyphenyl)carbamoyl](methyl)amino}-4-pyrimidinyl)amino]-5-(4-ethyl-1-piperazinyl)phenyl}acrylamide] | not detected | no change | no difference | induced in none of the three animals | – | – | – | – | – | – | 647.8±146.2 | 47 | 1222.0±326.5 | all the 8 animals in each group were confirmed to have tumor | 1.010 ± 0.260 | – | – |
| C=CC(=O)N[C@H]1CCOC[C@H]1Nc1ncc2cc(-c3c(Cl)c(OC)cc(OC)c3Cl)ccc2n1 [BLU-554, N-[(3 S,4S)-3-[[6-(2,6-dichloro-3,5-dimethoxyphenyl)quinazolin-2-yl]amino]oxan-4-yl]prop-2-enamide] | not detected | no change | no difference | induced in none of the three animals | – | – | – | – | – | – | – | – | – | – | – | 688.8±562.4 | 63.7 |
